Test results taken from patent US7297714B2, “Inhibitors of cathepsin S” (IRM LLC, priority 2003, dated 2007).

How the values were obtained:
Format in all cases: biochemical
Cathepsin S = Cathepsin S (Homo sapiens, UniProt P25774); test: Cathepsin S inhibition assay (fluorogenic peptide substrate); details: Cathepsin S inhibition constant; pH5.5; read-out: Ki Cat. S
Description: “Inhibition constant”, Ki, is the dissociation constant of the enzyme-inhibitor complex, or the reciprocal of the binding affinity of the inhibitor to the enzyme. For classical inhibition the value of Ki is much greater than the enzyme concentration and the Ki can be measured by monitoring the rate of reaction for a competitive substrate at multiple inhibitor concentrations. The inhibited rates are then fit by nonlinear regression to the following equation: […]
The assumption being made for the classical inhibition described above is that the free inhibitor concentration is equal to the total inhibitor concentration. For inhibitors that have Ki's that are approximately equal to the enzyme concentration [E], the assumption that the free inhibitor concentration is equal to the total inhibitor concentration is no longer valid and an alternative equation has to be fit for determination of the apparent inhibition constant, Ki^app using described methods (Kuzmic, P., K. C. Elrod, et al., Anal Biochem 2000, 286(1), 45-50):
(§1) The optimal substrate for cathepsin S, acetyl-histidine-proline-valine-lysine-amino carbamoyl coumarin, was identified from screening a combinatorial library of fluorogenic peptide substrates (Harris, J. L., B. J. Backes, et al., Proc Natl Acad Sci U S A 2000, 97(14), 7754-9). Kinetic measurements are performed in a total reaction volume of 30 μl in 384-well microtiter plates. Cathepsin S, at a final concentration of 0.3-3 nM (active site), is incubated with the compounds at twelve varying concentrations in a buffer containing 100 mM NaAc (pH5.5), 1 mM EDTA, 100 mM NaCl, 0.01% Brij-35 for 20 minutes at room temperature. Control reactions in the absence of inhibitor are performed in replicates of 24. The reactions are initiated by adding the substrate, acetyl-histidine-proline-valine-lysine-amino carbamoyl coumarin, to a final concentration of 50 μM. The rate of substrate hydrolysis is measured by monitoring the increase in fluorescence at an excitation wavelength of 380 nm and an emission wavelength of 450 nm that results from cleavage of the aniline bond in the substrate by the enzyme. The apparent inhibition constants for the compounds are determined from the enzyme progress curves (Kuzmic, P., K. C. Elrod, et al., Anal Biochem 2000, 286(1), 45-50) and are then used to calculate the inhibition constants for competitive inhibitors.

Cathepsin B = Cathepsin B (Homo sapiens, UniProt P07858); test: Cathepsin B inhibition assay, selectivity for cathepsin S over cathepsin B; details: ratio of cathepsin B inhibition constant to cathepsin S inhibition constant
Procedure: as §1, with “cathepsin B,” for “cathepsin S,”, “Sci US” for “Sci U S”, “Cathepsin B,” for “Cathepsin S,”, “of 1.5” for “of 0.3-3”, “of 10” for “of 50”
(§2) Selectivity for cathepsin S in the presence of cathepsin isozymes was determined by the ratio of the cathepsin isozyme inhibition constant of a compound of the present invention to the cathepsin S inhibition constant of the same compound. Preferred compounds of the present invention selective for cathepsin S have ratios of greater than 10. More preferred compounds of the present invention selective for cathepsin S have ratios of greater than 100. Most preferred compounds of the present invention selective for cathepsin S have ratios of greater than 1000.

Cathepsin L = Cathepsin L (Homo sapiens, UniProt P07711); test: Cathepsin L inhibition assay, selectivity for cathepsin S over cathepsin L; details: ratio of cathepsin L inhibition constant to cathepsin S inhibition constant
Sequence of Cathepsin L (P07711 114-333, species assumed): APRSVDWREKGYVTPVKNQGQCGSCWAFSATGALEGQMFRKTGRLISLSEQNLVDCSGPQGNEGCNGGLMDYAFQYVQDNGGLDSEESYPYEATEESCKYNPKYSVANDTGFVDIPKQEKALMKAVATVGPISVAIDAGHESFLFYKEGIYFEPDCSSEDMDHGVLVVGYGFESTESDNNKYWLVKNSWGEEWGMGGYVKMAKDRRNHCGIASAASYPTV
Procedure: (§3) The optimal substrate for cathepsin L, acetyl-histidine-lysine-phenylalanine-lysine-amino carbamoyl coumarin, was identified from screening a combinatorial library of fluorogenic peptide substrates (Harris, J. L., B. J. Backes, et al.; Proc Natl Acad Sci USA 2000, 97(14), 7754-9). Kinetic measurements are performed in a total reaction volume of 30 μl in 384-well microtiter plates. Cathepsin L, at a final concentration of 0.1 nM (active site), is incubated with the compounds at twelve varying concentrations in a buffer containing 100 mM NaAc (pH5.5), 1 mM EDTA, 100 mM NaCl, 0.01% Brij-35 for 20 minutes at room temperature. Control reactions in the absence of inhibitor are performed in replicates of 24. The reactions are initiated by adding the substrate, acetyl-histidine-lysine-phenylalanine-lysine-amino carbamoyl coumarin, to a final concentration of 20 μM. The rate of substrate hydrolysis is measured by monitoring the increase in fluorescence at an excitation wavelength of 380 nm and an emission wavelength of 450 nm that results from cleavage of the aniline bond in the substrate by the enzyme. The apparent inhibition constants for the compounds are determined from the enzyme progress curves (Kuzmic, P., K. C. Elrod, et al., Anal Biochem 2000, 286(1), 45-50) and are then used to calculate the inhibition constants for competitive inhibitors.
as §2

Cathepsin K = molecular target: T1, Cathepsin K (Homo sapiens, UniProt P43235); test: Cathepsin K inhibition assay, selectivity for cathepsin S over cathepsin K; details: ratio of cathepsin K inhibition constant to cathepsin S inhibition constant
T1 sequence (P43235 115-329): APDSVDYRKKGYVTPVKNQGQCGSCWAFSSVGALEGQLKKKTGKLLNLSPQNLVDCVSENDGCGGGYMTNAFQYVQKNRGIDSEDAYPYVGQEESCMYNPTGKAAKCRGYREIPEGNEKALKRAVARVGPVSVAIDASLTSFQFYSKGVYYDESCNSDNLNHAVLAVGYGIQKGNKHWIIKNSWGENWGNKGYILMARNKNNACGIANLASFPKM
Procedure: as §3, with “cathepsin K, acetyl-lysine-histidine-proline-lysine-amino” for “cathepsin L, acetyl-histidine-lysine-phenylalanine-lysine-amino”, “et al.,” for “et al.;”, “Cathepsin K,” for “Cathepsin L,”, “of 3.5” for “of 0.1”, “substrate, acetyl-lysine-histidine-proline-lysine-amino” for “substrate, acetyl-histidine-lysine-phenylalanine-lysine-amino”, “of 40” for “of 20”
as §2

Sequence of Cathepsin S (P25774 115-331, species assumed): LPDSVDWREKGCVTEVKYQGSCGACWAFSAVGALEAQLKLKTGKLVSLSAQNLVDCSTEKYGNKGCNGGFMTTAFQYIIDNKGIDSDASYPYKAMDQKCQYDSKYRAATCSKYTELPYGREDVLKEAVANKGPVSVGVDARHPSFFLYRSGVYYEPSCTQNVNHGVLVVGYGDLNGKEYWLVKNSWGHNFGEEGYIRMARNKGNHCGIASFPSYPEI

## O=C1CC(NC(=O)C(CC2CCCC2)NC(=O)c2ccc(-c3cccc(F)c3)o2)C(OC2CCCC2)O1 [Example 26, (3S)-[3-Cyclopentyl-(2S)-{[5-(3-fluoro-phenyl)-furan-2-carbonyl]-amino}propionylamino]-2-cyclopentoxy-5-oxo-tetrahydrofuran]
Cathepsin S
  Ki: < 100 nM
Cathepsin B
  Selectivity for Cat. S over Cat. B: +++ (+++, >1000)
Cathepsin L
  Selectivity for Cat. S over Cat. L: +++ (+++, >1000)
Cathepsin K
  Selectivity for Cat. S over Cat. K: + (+, >10)
